# From patent US20060115804A1, “Method of studying living cells” (priority 2002, published 2006)
# System: Primary human osteoblasts
# Assay: Formation and mineralisation of bone nodules (962 cm^-1 hydroxyapatite Raman peak) by osteoblasts cultured on 45S5 Bioglass
# Format: cell-based
# Conditions: culture medium supplemented with BGP; cells on 45S5 Bioglass substrates
# Procedure: Primary human osteoblasts were cultured on 45S5 Bioglass® substrates in order to induce formation of new bone. The formation of new bone can be detected with high sensitivity using Raman spectroscopy with 785 nm lasers by detecting the 962 cm^−1 Raman peak of hydroxyapatite (the mineral phase of bone). […] Only peaks corresponding to intrinsic cellular components were measured.
structure (smiles),measurement,value
"O=P(O)(O)OC(CO)CO [beta-glycerophosphate (BGP), beta-glycerophosphate]",Hydroxyapatite Raman peak (formation of bone nodules),a strong peak corresponding to hydroxyapatite was detected
